Measurements: patent US20150299233A1, “COMPOSITIONS AND METHODS COMPRISING RHENIUM FOR THE TREATMENT OF CANCERS” (Massachusetts Institute of Technology, priority 2014, published 2015)
Where two headings read alike, the source gives them in different places.

Tests used:
A549 cells [1] = assay: MTT cytotoxicity assay, A549 cells; format: cell-based, human
Experimental: In vitro toxicity of the rhenium (v) oxo complexes, 1 and 2 towards a panel of human cell lines was determined using the colorimetic MTT [[3-(4,5-dimethylithiazol-2-yl)-2,5-diphenyltetrazolium bromide] assay.
The in vitro effect of rhenium(V) oxo complexes 1 and 2 toward a panel of human cell lines was determined by the colorimetric MTT [3-(4,5-dimethylthiazol-2-yl)-2,5-diphenyltetrazolium bromide] assay. […] The IC50 values, or concentration required to induce 50% cell death, were derived from dose—response curves and are summarized in Table 1.
Cells (2×10^3 cells/well) were seeded in a 96-well plate. […] 1 and 2 were prepared as 10 mM solutions in DMSO and diluted using media. The final concentration of DMSO in each well was 0.5%, and this amount was also present in the untreated control. After 72 h, the medium was removed, 200 μL of a 0.4 mg/mL solution of MTT in DMEM, RPMI, or McCoy's 5A was added, and the plate was incubated for an additional 1-2 h. The DMEM/MTT, RPMI/MTT, or McCoy's 5A/MTT mixture was aspirated, and 200 μL of DMSO was added to dissolve the resulting purple formazan crystals. The absorbance of the solution wells was read at 550 nm. Absorbance values were normalized to DMSO-containing control wells and plotted as the concentration of test compound versus % cell viability. IC50 values were interpolated from the resulting dose-dependent curves. The reported IC50 values are the average from at least three independent experiments, each of which consisted of six replicates per concentration level.

[2] = tested on: cisplatin-sensitive cells (A2780); assay: MTT cytotoxicity assay, A2780 cells; format: cell-based, human
[3] = tested on: MCF-7 (breast adenocarcinoma); assay: MTT cytotoxicity assay, MCF-7 cells; format: cell-based, human; conditions: Table 2; cisplatin-resistant cell line; 72 h exposure
[4] = Lipophilicity, partition between octanol and water; format: physicochemical; conditions: experimentally determined
[5] = Variable-temperature 1H NMR stability in DMSO; format: physicochemical; conditions: intact up to 75° C.
Experimental: Two rhenium(v) oxo complexes (1 and 2; see Scheme 1) were prepared by reacting ReOCI3)2 with […] of the corresponding bidentate ligand in methanol. The complexes were isolated in reasonable yields as pale green solids and fully characterized by NMR and IR spectroscopy, ESI-MS spectrometry, and elemental analysis.
Synthesis and Characterization. The rhenium(V) oxo complexes 1 and 2 (see Scheme 1) were prepared by the reaction of [ReOCl3(PPh3)2] with 1.5 equiv of the corresponding bidentate ligand in methanol (Scheme 1). The complexes were isolated in reasonable yields as pale green solids and fully characterized by NMR and IR spectroscopy and ESI mass spectrometry. The purity of the complexes was confirmed by elemental analysis.

PC-3 = assay: Cytotoxicity in the presence of necrostatin-1, PC-3 cells; format: cell-based, human; conditions: necrostatin-1 60 μM, t test p<0.05
Experimental: In order to determine the cell-killing mechanism of 1 and 2, cytotoxicity studies in the presence of apoptosis and necrosis inhibitors were conducted. […] The possibility that 1 and 2 induce necroptosis was then investigated. Necroptosis is a well-regulated mode of cell death that is different from unregulated necrosis and apoptosis. Unlike unregulated necrosis, which can be induced by H2O2 or heat, necroptosis generally involved the interaction of protein kinases, RIP1 and RIP3, to initiate cell disintegration. This process can be blocked by necrostatin-1, a potent RIP1 kinase inhibitor. To determine whether 1 and 2 induced necroptosis and/or uncontrolled necrosis, cytotoxicity studies were conducted in the presence of necrostatin-1 (60 μM) and IM-54 (10 μM), an inhibitor of H2O2-induced necrosis. […] Therefore, 1- and 2-induced cell death relies on RIP1-RIP3 complex formation and not on the expression levels of the individual protein kinases. RIP1 can also form a cytosolic complex with Fas-associated death domain (FADD) and caspase 8, known as a ripoptosome, to initiate apoptosis (through caspase 8 cleavage).
Cytotoxicity MTT Assay. […] Cells (2×10^3 cells/well) were seeded in a 96-well plate. […] The absorbance of the solution wells was read at 550 nm. Absorbance values were normalized to DMSO-containing control wells and plotted as the concentration of test compound versus % cell viability. […]

A549 cells [6] = assay: JC-1 mitochondrial membrane potential assay; format: cell-based, human; conditions: for JC-1 green fluorescence versus untreated cells (mitochondrial membrane disruption): 1, 2, shikonin 20 μM for 12 h, CCCP 5 μM for 12 h
Experimental: The effect of 1 and 2 on the mitochondrial membrane potential was assessed by flow cytometry, using the JC-1 assay (5,5′,6,6′-tetrachloro-1,1′,3,3′-tetraethylbenzimidazolyl carbo-cyanine iodide). JC-1 is a cationic lipophilic dye that localizes in the mitochondria of healthy cells as red-emitting aggregates. If the mitochondrial membrane potential is disrupted, JC-1 forms green-emitting monomers. […] This could explain the high residual toxicity (>1 μM) observed for A549 cells co-incubated with the rhenium complexes (1 and 2) and necrostatin-1 (FIG. 1B).
JC-1 Assay. The JC-1 Mitochondrial Membrane Potential Assay Kit (Cayman) was used. The manufacturer's protocol was followed to carry out this experiment. Briefly, to untreated and treated A549 cells (1.5×10^6 cells/well) grown in six-well plates was added the JC-1 staining solution (100 μL/mL of cell media). The cells were incubated for 30 min, harvested, and analyzed by using the FACSCalibur-HTS flow cytometer (BD Biosciences) (20 000 events per sample were acquired).The FL1 channel was used to assess mitochondrial depolarization. Cell populations were analyzed using the FlowJo software (Tree Star).

A549 cells [7] = assay: Cell cycle analysis, DNA-flow cytometry; format: cell-based, human; conditions: 2 μM
Experimental: Cell Cycle Analysis. To gain a more complete understanding of the cellular response evoked, DNA-flow cytometric studies were conducted to determine the effect of 1 and 2 on the cell cycle. A549 cells were treated with 1 or 2 (2 μM), and the cell cycle was determined over the course of 72 h. […] Upon further incubation (72 h), large populations of cell debris were detected (32%), indicative of cell death. […] G1-phase cell cycle arrest followed by immediate cell death is characteristic of programmed necrosis.
Cell Cycle. In order to monitor the cell cycle, flow cytometry studies were carried out. A549 cells (1.5×10^6 cells/well) grown in six-well plates were incubated with and without the test compounds for 24, 48, and 72 h at 37° C. Cells were harvested from adherent cultures by trypsinization and combined with all detached cells from the incubation medium to assess total cell viability. Following centrifugation at 1000 rpm for 5 min, cells were washed with PBS and then fixed with 70% ethanol in PBS. Fixed cells were collected by centrifugation at 2500 rpm for 3 min, washed with PBS, and centrifuged as before. Cellular pellets were resuspended in 50 μg/mL PI (Sigma) in PBS for nucleic acids staining and treated with 100 µg/mL RNaseA (Sigma). DNA content was measured on a FACSCalibur-HTS flow cytometer (BD Biosciences) using laser excitation at 488 nm, and 20 000 events per sample were acquired. Cell cycle profiles were analyzed using the ModFit software.

[8] = Table 1, 72 h exposure, ± standard deviation, read-out: IC50 A549 lung carcinoma
[9] = Table A, average of three independent determinations, read-out: IC50 A549 (lung)
[10] = Table 1, 72 h exposure, ± standard deviation, read-out: IC50 A2780 ovarian carcinoma
[11] = Table A, average of three independent determinations, read-out: IC50 A2780 (ovarian)

Row | SMILES | IC50 (A549 cells [1]; [8]) | IC50 (A549 cells [1]; [9]) | higher toxicity for lung carcinoma A549 cells than cisplatin (A549 cells [1]; ratio to cisplatin, Example 1) | IC50 [2, 10] | IC50 [2, 11] | IC50 [3] | log P [4] | stability in DMSO [5] | effect of co-incubation with necrostatin-1 on toxicity, PC-3 (PC-3) | induced mitochondrial membrane depletion with necrostatin-1 (A549 cells [6]) | JC-1 green fluorescence versus untreated cells (mitochondrial membrane disruption) (A549 cells [6]) | effect on cell cycle after 24 h (A549 cells [7]) | effect on cell cycle after 48 h (A549 cells [7]; 48 h) | population of cell debris, 72 h (A549 cells [7]) | population of cell debris, 48 h (A549 cells [7]; 48 h)
1 | C[O][Re](=[O])([Cl])[Cl].c1ccc(-c2ccnc3c2ccc2c(-c4ccccc4)ccnc23)cc1 [Compound 1, [ReO(OMe)(4,7-diphenyl-1,10-phenanthroline)-Cl2]] | 0.207 ± 0.004 µM | 0.207 ± 0.004 µM | 37 fold | 0.67 ± 0.04 µM | 0.67 ± 0.04 µM | 0.285 ± 0.035 µM | 1.20 | stable | markedly decreased the toxicity | amplified | increased green fluorescence | stalled the cell cycle at the G1 phase | remained stalled at the G1 phase | 32% | 
2 | C[O][Re-2]1(=[O])([Cl])([Cl])[n+]2cc(C)c(C)c3ccc4c(C)c(C)c[n+]1c4c32 [Compound 2, [ReO(OMe)(3,4,7,8-tetramethyl-1,10-phenanthroline)Cl2]] | 0.157 ± 0.015 µM | 0.073 ± 0.003 µM |  | 0.15 ± 0.01 µM | 0.15 ± 0.01 µM | 0.805 ± 0.021 µM | 0.95 | stable | markedly decreased the toxicity | amplified | increased green fluorescence | stalled the cell cycle at the G1 phase |  | 38% | 26%
